Measured values: patent US7094414B2, “Famotidine injections” (Astellas Pharma Inc., priority 2000, dated 2006)

How the values were obtained:
[1] = Kinematic viscosity of aqueous solutions of non-aqueous solvents (25° C.); assay type: physicochemical
Excerpt: The “kinematic viscosity” herein is a value obtained by dividing viscosity of a liquid by its density and means a value measured using an Ubbelohde viscometer in accordance with Japanese Pharmacopoeia viscosity measuring method. In the invention, according to Japanese Pharmacopoeia, centistokes in CGS system is used as a unit.
These water-soluble acid amides may be used singly or as a mixture of two or more of them. Furthermore, within a range imparting no serious influence on viscosity, in addition to these, water-soluble non-aqueous solvents shown in JP-A-11-193233, for example, those described in the following Table 1 may be used as auxiliary solubilizing means.

[2] = as described in JP-B-63-65047; cited from earlier work

SMILES | Kinematic viscosity of aqueous solution ([1]; concentration 5% (W/V)) [Centistokes] | Kinematic viscosity of aqueous solution ([1]; concentration 10% (W/V)) [Centistokes] | Kinematic viscosity of aqueous solution ([1]; concentration 15% (W/V)) [Centistokes] | Kinematic viscosity of aqueous solution ([1]; concentration 20% (W/V)) [Centistokes] | Kinematic viscosity of aqueous solution ([1]; concentration 37% (W/V)) [Centistokes] | water-solubility [2] [w/v %]
CCO [Ethanol] | 1.082 | 1.300 | 1.577 | 1.857 | 2.479 | –
NC(N)=Nc1nc(CSCCC(N)=NS(N)(=O)=O)cs1 [Famotidine] | – | – | – | – | – | ≤ 0.1
CC(O)CO (centres unmarked) [Propylene glycol] | 1.067 | 1.247 | 1.455 | 1.729 | 3.048 | –
